# Laboratory results reported in ChEMBL document CHEMBL1201862, “PubChem BioAssay data set” (2004).
# The source made the active and inactive calls.
# Legend:
# [1] = biological target: Macrophage-stimulating protein receptor (Homo sapiens, UniProt Q04912); assay: Navigating the Kinome. Panel member name: MST1R; type: functional
# [2] = biological target: Dual specificity tyrosine-phosphorylation-regulated kinase 1A (Homo sapiens, UniProt Q13627); type: functional;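 also: measured against DYRK1A as one member of a broad kinome profiling panel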
# [3] = biological target: Calcium/calmodulin-dependent protein kinase type II subunit alpha (Homo sapiens, UniProt Q9UQM7); assay: Navigating the Kinome. Panel member name: CAMK2A; type: functional
# Chain of Calcium/calmodulin-dependent protein kinase type II subunit alpha (Q9UQM7 whole entry): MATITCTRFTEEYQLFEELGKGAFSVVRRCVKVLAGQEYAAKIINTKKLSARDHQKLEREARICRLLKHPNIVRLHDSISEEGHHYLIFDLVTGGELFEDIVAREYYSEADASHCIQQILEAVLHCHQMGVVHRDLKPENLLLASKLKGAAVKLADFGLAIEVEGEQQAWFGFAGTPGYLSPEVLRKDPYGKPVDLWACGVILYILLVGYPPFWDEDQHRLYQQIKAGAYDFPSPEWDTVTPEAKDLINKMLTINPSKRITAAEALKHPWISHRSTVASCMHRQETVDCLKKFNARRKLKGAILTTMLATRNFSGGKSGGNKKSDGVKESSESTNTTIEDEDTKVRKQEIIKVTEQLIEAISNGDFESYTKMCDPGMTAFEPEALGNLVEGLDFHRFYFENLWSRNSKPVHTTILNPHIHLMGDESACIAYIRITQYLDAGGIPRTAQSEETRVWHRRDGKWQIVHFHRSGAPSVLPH
# [4] = biological target: Leucine-rich repeat serine/threonine-protein kinase 2 (Homo sapiens, UniProt Q5S007); type: functional;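 also: value from a broad kinome-wide panel profiling study in which LRRK2 was one of the kinases tested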
# [5] = biological target: Cyclin-dependent kinase 9 (Homo sapiens, UniProt P50750); type: functional;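 also: value from the CDK9 entry of a kinome-spanning kinase panel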
# [6] = growth suppression of beta-catenin-knockout colon cells, dose response, cell-based, HCT116, human colon tumor (AID 1045); type: functional;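 also: HCT116 colon tumor cells with beta catenin knocked out; cells exposed to compound for 60 hours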
# [7] = cytotoxicity in HEK-293T cells, dose response, cytotoxicity control for TCR NF-kB inhibitor project, luminescence, T-cell screen hits (AID 489026); type: functional, cell-based;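 also: cells exposed to compound about 14 hours before the viability readout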
# H4 = assay: Luminescence Cell-Based Dose Response HTS to Identify Activators of 5'UTR Stem-Loop Driven Prion Protein mRNA Translation in H4 Neuroglioblastoma Cells. [Related pubchem assays: 1829 (Project Summary), 1814 (Primary HTS)]; type: functional; settings: Homo sapiens
# Nonstructural protein 1 = Nonstructural protein 1 (Influenza A virus, UniProt Q194T2); type: functional, Influenza A virus (A/California/07/2009(H1N1))
# Chain of Nonstructural protein 1 (Q194T2 whole entry): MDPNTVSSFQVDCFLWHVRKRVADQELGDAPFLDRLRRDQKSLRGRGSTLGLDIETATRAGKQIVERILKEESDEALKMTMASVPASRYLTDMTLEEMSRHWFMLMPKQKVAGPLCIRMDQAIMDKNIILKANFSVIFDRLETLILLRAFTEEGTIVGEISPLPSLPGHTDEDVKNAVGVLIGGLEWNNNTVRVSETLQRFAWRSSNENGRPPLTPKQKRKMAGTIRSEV
# [8] = biological target: T1, Microphthalmia-associated transcription factor (Homo sapiens, UniProt O75030); assay: TRPM1 promoter luciferase signal decrease, dose response, MITF inhibitor project, cell-based, SK-MEL-5, cherry-picked, set 3 (AID 493073); type: functional
# T1 sequence (O75030 whole entry): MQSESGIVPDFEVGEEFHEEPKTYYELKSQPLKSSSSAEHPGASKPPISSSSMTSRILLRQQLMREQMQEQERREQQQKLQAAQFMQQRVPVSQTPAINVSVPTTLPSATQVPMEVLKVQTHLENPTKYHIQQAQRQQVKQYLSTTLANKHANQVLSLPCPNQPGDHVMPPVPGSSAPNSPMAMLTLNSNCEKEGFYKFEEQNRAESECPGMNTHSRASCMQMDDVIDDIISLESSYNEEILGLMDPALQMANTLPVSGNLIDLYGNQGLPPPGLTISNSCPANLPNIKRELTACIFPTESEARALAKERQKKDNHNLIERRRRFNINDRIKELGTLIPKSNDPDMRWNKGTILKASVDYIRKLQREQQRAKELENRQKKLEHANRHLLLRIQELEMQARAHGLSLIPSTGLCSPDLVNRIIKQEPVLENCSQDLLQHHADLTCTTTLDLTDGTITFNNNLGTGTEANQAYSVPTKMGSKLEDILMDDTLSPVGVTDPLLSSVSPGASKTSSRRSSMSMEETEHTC
# [9] = biological target: Receptor tyrosine-protein kinase erbB-2 (Homo sapiens, UniProt P04626); assay: Navigating the Kinome. Panel member name: ERBB2; type: functional
# [10] = biological target: cGMP-dependent protein kinase 1 (Homo sapiens, UniProt Q13976); type: functional;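 also: value from a kinome panel screen with PRKG1 as the panel member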
# [11] = biological target: Mast/stem cell growth factor receptor Kit (Homo sapiens, UniProt P10721); type: functional;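 also: KIT entry within a kinase panel assay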
# Chain of Mast/stem cell growth factor receptor Kit (P10721 whole entry): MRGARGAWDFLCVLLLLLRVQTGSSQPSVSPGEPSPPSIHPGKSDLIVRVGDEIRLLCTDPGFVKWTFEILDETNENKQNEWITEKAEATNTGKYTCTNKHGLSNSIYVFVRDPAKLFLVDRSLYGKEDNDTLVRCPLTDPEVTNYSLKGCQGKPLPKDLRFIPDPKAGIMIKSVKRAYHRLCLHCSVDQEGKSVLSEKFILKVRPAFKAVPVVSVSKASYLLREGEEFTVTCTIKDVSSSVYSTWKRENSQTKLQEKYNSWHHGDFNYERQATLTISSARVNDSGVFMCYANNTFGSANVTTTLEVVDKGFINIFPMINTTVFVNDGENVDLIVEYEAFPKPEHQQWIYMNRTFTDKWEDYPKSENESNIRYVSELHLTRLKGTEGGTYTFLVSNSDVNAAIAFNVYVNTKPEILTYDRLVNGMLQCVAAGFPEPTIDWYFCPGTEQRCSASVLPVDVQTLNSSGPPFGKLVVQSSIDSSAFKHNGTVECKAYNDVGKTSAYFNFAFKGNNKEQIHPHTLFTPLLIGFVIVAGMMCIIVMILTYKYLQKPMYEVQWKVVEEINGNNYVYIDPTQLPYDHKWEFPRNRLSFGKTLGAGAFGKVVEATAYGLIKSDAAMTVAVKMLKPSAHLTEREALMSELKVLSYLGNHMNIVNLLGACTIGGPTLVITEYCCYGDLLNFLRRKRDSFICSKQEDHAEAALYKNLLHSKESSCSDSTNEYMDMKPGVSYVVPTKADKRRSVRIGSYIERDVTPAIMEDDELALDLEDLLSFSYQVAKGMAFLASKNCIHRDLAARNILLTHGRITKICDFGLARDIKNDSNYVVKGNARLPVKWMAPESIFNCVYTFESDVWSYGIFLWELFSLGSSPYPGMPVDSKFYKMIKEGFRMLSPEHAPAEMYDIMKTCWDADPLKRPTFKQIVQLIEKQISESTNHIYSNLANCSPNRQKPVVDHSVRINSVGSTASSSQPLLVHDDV
# [12] = biological target: Serine/threonine-protein kinase Chk1 (Homo sapiens, UniProt O14757); type: functional;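 also: measured as one member of a kinome-wide kinase profiling panel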
# [13] = biological target: Cyclin-dependent kinase 2 (Homo sapiens, UniProt P24941); type: functional;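 also: CDK2 measured as one member of a broad kinome profiling panel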
# [14] = biological target: Protein-tyrosine kinase 6 (Homo sapiens, UniProt Q13882); type: functional
# [15] = biological target: Serine/threonine-protein kinase N2 (Homo sapiens, UniProt Q16513); type: functional
# [16] = biological target: Testis-specific serine/threonine-protein kinase 2 (Homo sapiens, UniProt Q96PF2); type: functional;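 also: part of the Navigating the Kinome panel, target entry STK22B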
# [17] = biological target: Calcium/calmodulin-dependent protein kinase type II subunit gamma (Homo sapiens, UniProt Q13555); type: functional
# [18] = biological target: Fibroblast growth factor receptor 3 (Homo sapiens, UniProt P22607); type: functional
# Chain of Fibroblast growth factor receptor 3 (P22607 whole entry): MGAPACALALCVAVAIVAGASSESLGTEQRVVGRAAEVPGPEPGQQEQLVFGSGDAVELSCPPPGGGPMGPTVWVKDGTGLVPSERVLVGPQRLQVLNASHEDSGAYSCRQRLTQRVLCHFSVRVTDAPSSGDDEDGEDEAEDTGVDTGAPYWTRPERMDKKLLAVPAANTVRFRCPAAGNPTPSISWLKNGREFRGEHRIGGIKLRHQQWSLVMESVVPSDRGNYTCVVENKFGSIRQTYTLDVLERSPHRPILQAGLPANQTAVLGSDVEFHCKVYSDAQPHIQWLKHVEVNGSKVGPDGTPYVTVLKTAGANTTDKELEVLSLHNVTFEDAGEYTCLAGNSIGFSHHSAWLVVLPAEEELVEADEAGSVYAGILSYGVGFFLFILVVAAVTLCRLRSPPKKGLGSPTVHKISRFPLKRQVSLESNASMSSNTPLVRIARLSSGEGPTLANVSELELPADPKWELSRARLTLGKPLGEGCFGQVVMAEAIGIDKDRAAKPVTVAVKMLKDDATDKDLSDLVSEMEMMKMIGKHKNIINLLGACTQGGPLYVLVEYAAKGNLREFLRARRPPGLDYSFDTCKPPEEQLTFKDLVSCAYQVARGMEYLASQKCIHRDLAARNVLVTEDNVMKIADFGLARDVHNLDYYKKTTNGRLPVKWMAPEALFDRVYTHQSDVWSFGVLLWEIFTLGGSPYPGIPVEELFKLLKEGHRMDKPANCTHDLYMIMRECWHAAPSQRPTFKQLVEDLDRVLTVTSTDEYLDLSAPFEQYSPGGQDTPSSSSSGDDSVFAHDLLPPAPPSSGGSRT
# [19] = biological target: Mitogen-activated protein kinase 1 (Homo sapiens, UniProt P28482); type: functional
# [20] = biological target: Dual specificity tyrosine-phosphorylation-regulated kinase 4 (Homo sapiens, UniProt Q9NR20); type: functional
# [21] = biological target: Tyrosine-protein kinase Lck (Homo sapiens, UniProt P06239); type: functional;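 also: lck was assayed as one member of a kinase panel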
# [22] = biological target: Glycogen synthase kinase-3 beta (Homo sapiens, UniProt P49841); type: functional;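 also: value comes from a broad kinome profiling panel, with GSK3B as the panel member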
# Chain of Glycogen synthase kinase-3 beta (P49841 whole entry): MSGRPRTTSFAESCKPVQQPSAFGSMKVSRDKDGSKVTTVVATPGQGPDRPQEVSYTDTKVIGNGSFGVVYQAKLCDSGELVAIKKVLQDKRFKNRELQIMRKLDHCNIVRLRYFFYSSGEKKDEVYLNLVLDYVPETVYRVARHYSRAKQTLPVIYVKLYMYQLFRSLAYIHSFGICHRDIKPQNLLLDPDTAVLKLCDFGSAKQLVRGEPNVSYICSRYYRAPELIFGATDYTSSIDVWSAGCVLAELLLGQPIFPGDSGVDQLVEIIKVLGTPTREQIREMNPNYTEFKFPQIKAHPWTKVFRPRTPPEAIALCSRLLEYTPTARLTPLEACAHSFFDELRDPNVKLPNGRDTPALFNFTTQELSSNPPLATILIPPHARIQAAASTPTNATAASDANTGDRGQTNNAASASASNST
# [23] = biological target: Homeodomain-interacting protein kinase 2 (Homo sapiens, UniProt Q9H2X6); type: functional;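 also: measured within a kinome-wide kinase profiling panel, HIPK2 being one panel member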
# LIM domain kinase 1 = LIM domain kinase 1 (Homo sapiens, UniProt P53667); assay: Navigating the Kinome. Panel member name: LIMK1; type: functional
# Chain of LIM domain kinase 1 (P53667 whole entry, the tested form may be a part): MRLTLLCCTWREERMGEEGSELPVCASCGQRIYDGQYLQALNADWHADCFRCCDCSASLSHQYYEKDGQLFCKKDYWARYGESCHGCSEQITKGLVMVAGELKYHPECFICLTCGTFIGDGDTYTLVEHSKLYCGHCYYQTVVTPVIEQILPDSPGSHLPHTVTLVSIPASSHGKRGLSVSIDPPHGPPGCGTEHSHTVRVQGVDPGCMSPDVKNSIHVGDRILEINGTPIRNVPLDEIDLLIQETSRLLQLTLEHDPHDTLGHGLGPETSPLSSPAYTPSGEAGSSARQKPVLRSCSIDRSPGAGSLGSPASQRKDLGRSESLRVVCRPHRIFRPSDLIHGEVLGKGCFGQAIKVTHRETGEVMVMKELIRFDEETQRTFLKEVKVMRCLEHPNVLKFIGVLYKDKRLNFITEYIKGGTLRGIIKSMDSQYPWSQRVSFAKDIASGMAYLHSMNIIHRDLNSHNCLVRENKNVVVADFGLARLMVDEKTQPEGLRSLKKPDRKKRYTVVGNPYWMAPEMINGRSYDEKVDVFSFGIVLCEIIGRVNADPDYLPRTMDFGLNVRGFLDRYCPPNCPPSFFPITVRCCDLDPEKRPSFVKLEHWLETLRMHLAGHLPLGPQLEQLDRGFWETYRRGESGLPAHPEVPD
# [24] = biological target: Receptor tyrosine-protein kinase erbB-4 (Homo sapiens, UniProt Q15303); type: functional;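 also: ERBB4 member of a kinome-wide kinase profiling panel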
# [25] = biological target: Serine/threonine-protein kinase DCLK1 (Homo sapiens, UniProt O15075); type: functional;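 also: affinity for DCLK1 (listed as DCAMKL1) measured as one member of a kinome-wide kinase profiling panel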
# [26] = biological target: Serine/threonine-protein kinase 17A (Homo sapiens, UniProt Q9UEE5); type: functional
# Chain of Serine/threonine-protein kinase 17A (Q9UEE5 whole entry): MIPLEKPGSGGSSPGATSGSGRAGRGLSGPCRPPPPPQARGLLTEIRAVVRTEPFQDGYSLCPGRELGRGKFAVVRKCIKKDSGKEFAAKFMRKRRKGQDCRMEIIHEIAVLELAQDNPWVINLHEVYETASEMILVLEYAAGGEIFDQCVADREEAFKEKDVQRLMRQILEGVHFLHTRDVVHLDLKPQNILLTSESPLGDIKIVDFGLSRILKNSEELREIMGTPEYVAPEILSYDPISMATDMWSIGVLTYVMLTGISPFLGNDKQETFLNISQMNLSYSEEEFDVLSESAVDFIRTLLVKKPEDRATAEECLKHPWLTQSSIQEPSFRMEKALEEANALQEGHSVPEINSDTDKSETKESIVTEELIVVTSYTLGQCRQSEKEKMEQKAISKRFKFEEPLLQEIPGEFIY
# [27] = biological target: Serine/threonine-protein kinase PLK3 (Homo sapiens, UniProt Q9H4B4); type: functional
# [28] = biological target: Serine/threonine-protein kinase D2 (Homo sapiens, UniProt Q9BZL6); type: functional;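 also: measured against PRKD2 as one member of a kinome-wide kinase profiling panel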
# [29] = biological target: Lymphokine-activated killer T-cell-originated protein kinase (Homo sapiens, UniProt Q96KB5); type: functional;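 also: value comes from a kinase panel screen in which TOPK was one of the panel members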
# Ephrin type-A receptor 2 = Ephrin type-A receptor 2 (Homo sapiens, UniProt P29317); type: functional;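 also: EPHA2 tested as one member of a kinome-wide kinase panel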
# Chain of Ephrin type-A receptor 2 (P29317 whole entry): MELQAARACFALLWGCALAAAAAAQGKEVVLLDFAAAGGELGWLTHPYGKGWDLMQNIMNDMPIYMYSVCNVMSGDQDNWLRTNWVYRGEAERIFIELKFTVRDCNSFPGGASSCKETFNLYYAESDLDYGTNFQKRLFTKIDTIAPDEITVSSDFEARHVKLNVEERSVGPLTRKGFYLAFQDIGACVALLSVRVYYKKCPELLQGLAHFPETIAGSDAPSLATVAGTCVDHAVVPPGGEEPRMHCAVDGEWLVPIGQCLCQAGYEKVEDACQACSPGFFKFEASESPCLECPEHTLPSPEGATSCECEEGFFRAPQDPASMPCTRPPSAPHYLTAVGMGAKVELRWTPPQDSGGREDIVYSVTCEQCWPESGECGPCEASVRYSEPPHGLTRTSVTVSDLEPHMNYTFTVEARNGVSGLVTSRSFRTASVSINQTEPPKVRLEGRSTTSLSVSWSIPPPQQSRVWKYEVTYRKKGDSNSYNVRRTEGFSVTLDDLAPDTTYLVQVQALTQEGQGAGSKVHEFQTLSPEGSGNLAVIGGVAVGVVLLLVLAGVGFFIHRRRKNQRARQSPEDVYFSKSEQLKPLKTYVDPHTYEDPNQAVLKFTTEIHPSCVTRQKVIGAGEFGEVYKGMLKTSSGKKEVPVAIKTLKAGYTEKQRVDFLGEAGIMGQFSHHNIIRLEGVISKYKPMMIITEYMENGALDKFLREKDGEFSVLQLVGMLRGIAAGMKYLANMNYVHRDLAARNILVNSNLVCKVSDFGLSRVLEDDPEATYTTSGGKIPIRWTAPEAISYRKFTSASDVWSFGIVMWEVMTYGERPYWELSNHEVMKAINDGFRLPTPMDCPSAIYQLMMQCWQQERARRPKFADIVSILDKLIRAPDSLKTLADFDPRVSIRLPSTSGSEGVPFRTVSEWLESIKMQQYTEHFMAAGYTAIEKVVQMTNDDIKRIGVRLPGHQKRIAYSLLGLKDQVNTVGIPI
# [30] = biological target: Casein kinase II subunit alpha (Homo sapiens, UniProt P68400); type: functional
# [31] = biological target: Interleukin-1 receptor-associated kinase 4 (Homo sapiens, UniProt Q9NWZ3); type: functional
# [32] = NIH-3T3 fibroblast cytotoxicity, dose response, cytotoxicity control, cell-based, fluorescence, Alamar Blue, secondary assay (AID 2327); type: functional;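 also: NIH-3T3 mouse fibroblasts cultured with fluconazole at 8 µg/mL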
# [33] = biological target: Heat shock protein HSP 90-alpha (Homo sapiens, UniProt P07900); type: functional, organism-based
smiles,measurement,setting,value
CCn1c(-c2nonc2N)nc2cncc(C(=O)N3CCC(N)C3)c21 (configuration not stated),Ki,[1],> 3980 nM (inactive)
same,Ki,[2],100 nM (active)
same,Ki,[3],> 7940 nM (inactive)
same,Ki,[4],631 nM (active)
same,Ki,[5],> 1580 nM (inactive)
COC(=O)c1ccccc1NC1=C/C(=N\S(=O)(=O)c2cccs2)c2ccccc2C1=O,EC50,[6],8190 nM (active)
same,IC50,[7],980 nM (active)
same,EC50,H4,1890 nM (active)
same,IC50,Nonstructural protein 1,5160 nM (active)
Cc1cc(C)c[n+](C2=C([N-]S(=O)(=O)c3cccs3)C(=O)c3ccccc3C2=O)c1,AC50,[8],2950 nM (active)
Cc1[nH]nc2ccc(-c3cncc(OCC(N)Cc4c[nH]c5ccccc45)c3)cc12 (configuration not stated),Ki,[9],> 1580 nM (inactive)
same,Ki,[10],251 nM (active)
same,Ki,[11],> 1260 nM (inactive)
same,Ki,[12],> 7940 nM (inactive)
same,Ki,[13],50.1 nM (active)
same,Ki,[14],> 2510 nM (inactive)
same,Ki,[15],5.01 nM (active)
same,Ki,[16],> 1580 nM (inactive)
same,Ki,[17],12.6 nM (active)
same,Ki,[18],> 2000 nM (inactive)
same,Ki,[19],316 nM (active)
same,Ki,[20],251 nM (active)
same,Ki,[21],> 2510 nM (inactive)
same,Ki,[22],10 nM (active)
same,Ki,[23],79.4 nM (active)
same,Ki,LIM domain kinase 1,794 nM (active)
same,Ki,[24],> 3980 nM (inactive)
same,Ki,[25],6310 nM (active)
same,Ki,[26],126 nM (active)
same,Ki,[27],> 7940 nM (inactive)
same,Ki,[28],31.6 nM (active)
same,Ki,[29],1000 nM (active)
same,Ki,Ephrin type-A receptor 2,> 3160 nM (inactive)
same,Ki,[30],> 6310 nM (inactive)
same,Ki,[31],794 nM (active)
CCCCCCCCCCC[N+](C)(C)CC/C=C1/c2ccccc2Sc2ccc(Cl)cc21,EC50,[32],> 150000 nM (inconclusive)
same,AC50,[33],6770 nM (active)
